Where two headings read alike, the source gives them in different places. Where a SMILES comes first, the peptide text is derived from it. [ ]: non-standard residue; d: D form. The star is where a group is joined. Ala(3-Me-diazirin-3-yl) = CC1(C[C@H](N)C(=O)O)N=N1; Palmitoyl = CCCCCCCCCCCCCCCC(=O)*
What was measured:
male BALB/c mice = assay: Mobilization of polymorphonuclear leukocytes (PMNs) in mice; assay type: in vivo; details: for Lymphocytes (×10^3 μl) Mean ± SD / PMNs (×10^3 μl) Mean ± SD: blood 3 hours after injection
Description: The effect of Compound 26 on mobilization of PMNs following subcutaneous administration was evaluated in mice. […] Louis, Mo.) was administered subcutaneously to 10 mice. […] Neutrophil and lymphocyte counts were determined using a Hemavet Model 950FS cell counter (Drew Scientific, Dallas, Tex.).

CXCR4 = target: T1, CXCR4 (Homo sapiens, UniProt P61073); assay: Calcium flux assay, agonist mode, Flexstation (CCRF-CEM cells); assay type: cell-based; details: for Emax: CCRF-CEM, percent of maximum response compared with SDF-1α, read-out: % Intrinsic Activity
T1 construct: CCRF-CEM cells, a human T-cell ALL line that endogenously expresses CXCR4; endogenous in cells; host or cells: CCRF-CEM (human T-cell acute lymphoblastic leukemia line)
Description: Calcium Flux Assay is one of the most popular cell-based GPCR functional assays. It most often uses calcium sensing fluorescent dyes such as fura2 AM, fluo-4 and Calcium-4 to measure changes in intracellular calcium concentration. It is used mainly to detect GPCR signaling via Gαq subunit. Activation of these Gq-coupled GPCRs leads to activation of phospholipase C, which subsequently leads to increase in inositol phosphate production. IP3 receptors on endoplasmic reticulum sense the change then release calcium into cytoplasm. Intracellular calcium binding to the fluorescent dyes can be detected by instruments that quantify fluorescent intensities, such as FLIPR Tetra, Flexstation (MDS) and FDSS (Hamamatsu). In addition, to assess Gq-couple receptor signaling, a calcium flux assay can also be used to study Gs and Gi couple receptors by co-expressing CNG (cyclic nucleotide gated calcium channel) or chimeric G-proteins (Gqi5, Gsi5 for example). Activation of some Gi-coupled receptors can also be detected by calcium flux assay via Gβγ mediated phospholipase C activation.
The calcium flux assay was used to assess the test compounds' ability to activate the CXCR4 receptor in CCRF-CEM cells (human T lymphoblasts from acute lymphoblastic leukemia). […] After dye loading by incubating with Calcium-4 dye at 37° C. for 1 hour, cell plates were read at 37° C. using the using the Flexstation 3 workstation. Receptor activation was assessed by measuring changes in fluorescent intensity after the addition of the test compounds or the reference agonist SDF-1α on the using the Flexstation 3 workstation. EC50
and percent intrinsic actively were derived from the data collected. Intrinsic activity refers to the efficacy of the test compound and is calculated as the percent of maximum response compared with the response of the reference standard (i.e., natural agonist, SDF-1α).

[1] = Pharmacokinetic analysis in mice (plasma, LC/MS); assay type: in vivo; details: for bioavailability / half-life / MRT inf / Tmax: male, mouse, in vivo, 2.5 umol/kg; for half-life / MRT inf / Tmax: sc
Description: To determine the pharmacokinetic profile of the CXCR4 modulators, compounds were administered as single subcutaneous injection to 6-8 week old male mice at doses of either […] (three or four mice/group). […] Dosing of 0.5 μmol/kg or 1 μmol/kg were used for intravenous dosing. […] Mice were sacrificed and blood samples collected at 15 minutes, 30 minutes, 1 hour, 2 hours, 4 hours, 8 hours, and 24 hours after dosing. The concentration of compound in plasma samples was analyzed by LC/MS according to the method below.
To this, 5 μL of the analyte compound in AcN:H2O:FA (70:30:1%) of 100 μM concentration was added to get 5 μM concentration.
Serial calibration standards in plasma or plasma samples were transferred to clean labeled tubes and mixed with 3 volumes of acetonitrile with internal standard, tolbutamide, in order to precipitate proteins. The mixtures were vortexed and centrifuged at 12000 RPM (15320 g) for 10 minutes. Supernatants were transferred to HPLC injection vials or 96-well plates and 5 μL were injected into the LC-MS/MS system.
Noncompartmental pharmacokinetic analyses were performed using WinNonlin Professional (version 5.2) software (Pharsight, Cary, N.C.). The data were analyzed using the extravascular input model. For each subject, pharmacokinetic parameters were calculated individually as follows and then averaged. The maximum drug concentration in plasma, Cmax, and Tmax, the time to achieve Cmax, were calculated directly from the concentration-time curves. The area under the plasma concentration-time curve from hour 0 to the last measurable concentration in plasma, AUClast, was estimated by the linear trapezoidal rule. The area under the plasma concentration-time curve from hour 0 to infinity estimated using the following formula: AUCinf—obs=AUClast+Ct/Lambda_z, where Ct is the last measurable concentration in plasma, and Lambda_z is the terminal elimination rate constant estimated using log-linear regression during the terminal elimination phase. The number of points used in Lambda_z calculation was determined by visual inspection of the data describing the terminal phase and evaluation of the correlation coefficient associated with the regression line. T1/2, the terminal elimination half-life=ln(2)/Lambda_z. Mean residence time MRT, was calculated as following: MRT=(AUMCinf/AUCinf). Subcutaneous absorption bioavailability was calculated as the AUCinf following subcutaneous dosing divided by the AUCinf following intravenous dosing. Results were expressed as percentages.

T1 sequence (P61073 whole entry): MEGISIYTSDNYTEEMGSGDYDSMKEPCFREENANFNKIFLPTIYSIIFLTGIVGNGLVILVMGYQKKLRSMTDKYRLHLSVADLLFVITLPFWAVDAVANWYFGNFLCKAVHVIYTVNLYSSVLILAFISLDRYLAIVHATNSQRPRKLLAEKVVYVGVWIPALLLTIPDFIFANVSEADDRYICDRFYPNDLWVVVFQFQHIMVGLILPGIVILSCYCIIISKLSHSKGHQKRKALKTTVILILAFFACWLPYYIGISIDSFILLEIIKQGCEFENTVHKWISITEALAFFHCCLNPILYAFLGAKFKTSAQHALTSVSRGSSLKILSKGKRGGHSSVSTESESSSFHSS

c1cc(CN2CCCNCCNCCCNCC2)ccc1CN1CCCNCCNCCCNCC1 [AMD3100, reference compound]
Lymphocytes (×10^3 μl) Mean ± SD (male BALB/c mice; 6.66 μmol/kg subcutaneous): 8.76 ± 1.67 ×10^3 μl | PMNs (×10^3 μl) Mean ± SD (male BALB/c mice; 6.66 μmol/kg subcutaneous): 7.83 ± 3.20 ×10^3 μl

CCCCCCCCCCCCCCCC(=O)NCC(=O)NCC(=O)N[C@@H](Cc1ccc(O)cc1)C(=O)N[C@@H](CCC(N)=O)C(=O)N[C@@H](CCCCN)C(=O)N[C@@H](CCCCN)C(=O)N[C@@H](CC(C)C)C(=O)N[C@@H](CCCNC(=N)N)C(=O)N1CCC[C@@H]1C(=O)N[C@@H](Cc1c[nH]cn1)C(=O)N[C@H](C(=O)N[C@@H](CC(=O)O)C(=O)N[C@@H](CCCCN)C(=O)N[C@@H](Cc1ccc(O)cc1)C(=O)N[C@@H](CCCNC(=N)N)C(=O)N[C@@H](CC(C)C)C(N)=O)[C@@H](C)O [Compound 26] (Palmitoyl-GGYQKKLR[dP]HTDKYRL-NH2; C-terminus assumed)
Emax (CXCR4): 91.2% | bioavailability ([1]; mice, subcutaneous 2.5 μmol/kg, AUCinf subcutaneous divided by AUCinf intravenous, read-out: Bioavailability (%)): 88% | half-life ([1]; mice, single subcutaneous injection, 2.5 μmol/kg, read-out: Half-life elimination (converted)): 2.4 h | MRT inf ([1]; mice, single subcutaneous injection, 2.5 μmol/kg, read-out: MRT INFobs): 4.5 h | Tmax ([1]; mice, single subcutaneous injection, 2.5 μmol/kg, read-out: Tmax): 2 h | bioavailability following subcutaneous administration (comparison in words) ([1]; mice, subcutaneous): greater than that of compound 48 | Lymphocytes (×10^3 μl) Mean ± SD (male BALB/c mice; 0.2 μmol/kg subcutaneous): 4.39 ± 1.33 ×10^3 μl | PMNs (×10^3 μl) Mean ± SD (male BALB/c mice; 0.2 μmol/kg subcutaneous): 3.60 ± 1.89 ×10^3 μl | Lymphocytes (×10^3 μl) Mean ± SD (male BALB/c mice; 0.66 μmol/kg subcutaneous): 5.14 ± 2.22 ×10^3 μl | PMNs (×10^3 μl) Mean ± SD (male BALB/c mice; 0.66 μmol/kg subcutaneous): 5.03 ± 1.97 ×10^3 μl | Lymphocytes (×10^3 μl) Mean ± SD (male BALB/c mice; 2 μmol/kg subcutaneous): 4.15 ± 1.97 ×10^3 μl | PMNs (×10^3 μl) Mean ± SD (male BALB/c mice; 2 μmol/kg subcutaneous): 5.92 ± 1.73 ×10^3 μl | Lymphocytes (×10^3 μl) Mean ± SD (male BALB/c mice; 6.66 μmol/kg subcutaneous): 3.74 ± 2.12 ×10^3 μl | PMNs (×10^3 μl) Mean ± SD (male BALB/c mice; 6.66 μmol/kg subcutaneous): 7.11 ± 2.82 ×10^3 μl | release of bone marrow PMNs (in words) (male BALB/c mice; systemic, subcutaneous injection): acted as a functional antagonist to elicit release of bone marrow PMNs in a dose responsive fashion

CCCCCCCCCCCCCCCC(=O)NCC(=O)NCC(=O)N[C@@H](Cc1ccc(O)cc1)C(=O)N[C@@H](CCC(N)=O)C(=O)N[C@@H](CCCCN)C(=O)N[C@@H](CCCCN)C(=O)N[C@@H](CC1(C)N=N1)C(=O)N[C@@H](CCCNC(=N)N)C(=O)N[C@@H](CO)C(=O)N[C@@H](C)C(=O)N[C@H](C(=O)N[C@@H](CC(=O)O)C(=O)N[C@@H](CCCCN)C(=O)N[C@@H](Cc1ccc(O)cc1)C(=O)N[C@@H](CCCNC(=N)N)C(=O)N[C@@H](CC(C)C)C(N)=O)[C@@H](C)O [Compound 37] (Palmitoyl-GGYQKK[Ala(3-Me-diazirin-3-yl)]RSATDKYRL-NH2; C-terminus assumed)
Emax (CXCR4): 85.7% | EC50 (CXCR4; calcium flux): 71.1 nM

CCCCCCCCCCCCCCCC(=O)NCC(=O)NCC(=O)N[C@@H](Cc1ccc(O)cc1)C(=O)N[C@@H](CCC(N)=O)C(=O)N[C@@H](CCCCN)C(=O)N[C@@H](CCCCN)C(=O)N[C@@H](Cc1c[nH]cn1)C(=O)N[C@@H](CCCNC(=N)N)C(=O)N[C@@H](CO)C(=O)N[C@@H](C)C(=O)N[C@H](C(=O)N[C@@H](CC(=O)O)C(=O)N[C@@H](CCCCN)C(=O)N[C@@H](Cc1ccc(O)cc1)C(=O)N[C@@H](CCCNC(=N)N)C(=O)N[C@@H](CC(C)C)C(N)=O)[C@@H](C)O [Compound 38] (Palmitoyl-GGYQKKHRSATDKYRL-NH2; C-terminus assumed)
Emax (CXCR4): 86.8%

CCCCCCCCCCCCCCCC(=O)NCC(=O)NCC(=O)N[C@@H](Cc1ccc(O)cc1)C(=O)N[C@@H](CCC(N)=O)C(=O)N[C@@H](CCCCN)C(=O)N[C@@H](CCCCN)C(=O)N[C@H](CC(C)C)C(=O)N[C@@H](CCCNC(=N)N)C(=O)N[C@@H](CO)C(=O)N[C@@H](C)C(=O)N[C@H](C(=O)N[C@@H](CC(=O)O)C(=O)N[C@@H](CCCCN)C(=O)N[C@@H](Cc1ccc(O)cc1)C(=O)N[C@@H](CCCNC(=N)N)C(=O)N[C@@H](CC(C)C)C(N)=O)[C@@H](C)O [Compound 39] (Palmitoyl-GGYQKK[dL]RSATDKYRL-NH2; C-terminus assumed)
Emax (CXCR4): 104%

CCCCCCCCCCCCCCCC(=O)NCC(=O)NCC(=O)N[C@@H](Cc1ccc(O)cc1)C(=O)N[C@@H](CCC(N)=O)C(=O)N[C@@H](CCCCN)C(=O)N[C@@H](CCCCN)C(=O)N[C@@H](CC(C)C)C(=O)N[C@@H](CCCNC(=N)N)C(=O)N[C@@H](CO)C(=O)N[C@@H](C)C(=O)N[C@H](C(=O)N[C@@H](CC(=O)O)C(=O)N[C@@H](CCCCN)C(=O)N[C@@H](Cc1ccc(O)cc1)C(=O)N[C@@H](CCCNC(=N)N)C(=O)N[C@@H](CC(C)C)C(=O)N[C@@H](Cc1c[nH]cn1)C(N)=O)[C@@H](C)O [Compound 40] (Palmitoyl-GGYQKKLRSATDKYRLH-NH2; C-terminus assumed)
Emax (CXCR4): 78.7%

CCCCCCCCCCCCCCCC(=O)NCC(=O)NCC(=O)N[C@@H](Cc1ccc(O)cc1)C(=O)N[C@@H](CCC(N)=O)C(=O)N[C@@H](CCCCN)C(=O)N[C@@H](CCCCN)C(=O)N[C@@H](CC(C)C)C(=O)N[C@@H](CCCNC(=N)N)C(=O)N[C@H](C(=O)N[C@@H](C)C(=O)N[C@H](C(=O)N[C@@H](CC(=O)O)C(=O)N[C@@H](CCCCN)C(=O)N[C@@H](Cc1ccc(O)cc1)C(=O)N[C@@H](CCCNC(=N)N)C(=O)N[C@@H](CC(C)C)C(N)=O)[C@@H](C)O)[C@@H](C)O [Compound 41] (Palmitoyl-GGYQKKLRTATDKYRL-NH2; C-terminus assumed)
Emax (CXCR4): 149%

CCCCCCCCCCCCCCCC(=O)N[C@@H](CCSC)C(=O)NCC(=O)N[C@@H](Cc1ccc(O)cc1)C(=O)N[C@@H](CCC(N)=O)C(=O)N[C@@H](CCCCN)C(=O)N[C@@H](CCCCN)C(=O)N[C@@H](CC(C)C)C(=O)N[C@@H](CCCNC(=N)N)C(=O)N[C@@H](CO)C(=O)N[C@@H](CCSC)C(=O)N[C@H](C(=O)N[C@@H](CC(=O)O)C(=O)N[C@@H](CCCCN)C(=O)N[C@@H](Cc1ccc(O)cc1)C(=O)N[C@@H](CCCNC(=N)N)C(=O)N[C@@H](CC(C)C)C(N)=O)[C@@H](C)O [Compound 48] (Palmitoyl-MGYQKKLRSMTDKYRL-NH2)
bioavailability [1]: < 30% | MRT inf [1]: 2.6 h | Tmax [1]: 2 h | half-life [1]: 1.5 h

— patent US9155795B2, “CXCR4 receptor compounds” (Anchor Therapeutics, Inc., priority 2010, dated 2015)
